# Assay results: patent US4639370A, “Pharmaceutical composition” (Farmitalia Carlo Erba S.p.A., priority 1984, dated 1987)
# Where two headings read alike, the source gives them in different places.
# How the values were obtained:
# [1] = Solubility of griseofulvin systems, pH 7.4 buffer, 37° C.
# Procedure: (§1) The flasks were placed in a shaking thermostated apparatus and aliquots of sample solutions were taken by filtering through a Millipore membrane.
# The griseofulvin concentrations were determined by spectrophotometry (λ=294 nm).
# [2] = Description: The completeness of the amorphization process can be checked by the absence in the Differential Scanning Calorimetry thermogram of the resulting drug-polymer system of the transition peak relative to the solid/liquid endothermic transition of the crystalline drug. The absence of the transition peak means that the enthalpy of melting is practically zero.
# This transformation is indicated by the shifting of the original endothermic peak of the DSC thermogram to lower temperatures, which leads to higher dissolution rates and bioavailability.
# Differential Scanning Calorimetry Data
# [3] = Solubility of indomethacin systems, pH 6.8 buffer, 37° C.; assay type: physicochemical
# Procedure: The indomethacin concentrations were determined by spectrophotometry (λ=317 nm).
# [4] = buffer, pH 2
# Procedure: as §1
# The indoprofen concentrations were determined by spectrophotometry (λ=280 nm).
# [5] = Solubility of MAP systems, pH 5.5 phosphate buffer, 37° C.; assay type: physicochemical
# Procedure: The flasks were placed in a shaking thermostated apparatus and aliquots of sample solutions were taken by filtering through a Millipore membrane. The concentration of MAP in the filtered aliquot was determined both by spectrophotometry (SP 8-100, Pye Unicam) after dilution with methanol, λ=247 nm, and by HPLC (column: Spherisorb S30 D52, Phase Sep.; mobile phase acetonitrile/water 70/30 v/v; flow rate 1 ml/min; U.V. detection, λ=242 nm), after dilution with acetonitrile.
smiles,measurement,setting,value
"COC1=CC(=O)C[C@@H](C)[C@]12Oc1c(Cl)c(OC)cc(OC)c1C2=O [Pure crystalline Griseofulvin, griseofulvin]",Solubility (griseofulvin concentration),[1]; 5 min,9.1 µg/mL
same,Solubility (griseofulvin concentration),[1]; 15 min,11.0 µg/mL
same,Solubility (griseofulvin concentration),[1]; 1 hr,10.9 µg/mL
same,Solubility (griseofulvin concentration),[1]; 3 hrs,11.3 µg/mL
same,Solubility (griseofulvin concentration),[1]; 24 hrs,14.9 µg/mL
same,Melting Point,[2],218.8 °C
same,% Residual of Original Heat of Fusion,"[2]; griseofulvin systems, Table 3",100%
same,Heat of Fusion,"[2]; griseofulvin systems, Table 3",119.22 J/g
"COc1ccc2c(c1)c(CC(=O)O)c(C)n2C(=O)c1ccc(Cl)cc1 [Pure crystalline Indomethacin, indomethacin]",Heat of Fusion,"[2]; indomethacin systems, Table 4",110.8 J/g
same,Melting Point,"[2]; indomethacin systems, Table 4",160.2 °C
same,Solubility (indomethacin concentration),[3]; 5 min,230.2 µg/mL
same,Solubility (indomethacin concentration),[3]; 15 min,358.2 µg/mL
same,Solubility (indomethacin concentration),[3]; 1 hr,482.1 µg/mL
same,Solubility (indomethacin concentration),[3]; 3 hrs,502.8 µg/mL
same,Solubility (indomethacin concentration),[3]; 24 hrs,502.0 µg/mL
"CC(C(=O)O)c1ccc(N2Cc3ccccc3C2=O)cc1 (stereo not drawn) [Pure crystalline Indoprofen, indoprofen]",Melting Point,[2],212-215 °C
same,% Residual of Original Heat of Fusion,"[2]; indoprofen systems, Table 2",100.0%
same,Heat of Fusion,"[2]; indoprofen systems, Table 2",134.6 J/g
same,Solubility (indoprofen concentration),[4]; 5 min,1.6 µg/mL
same,Solubility (indoprofen concentration),[4]; 0.25 h,3.0 µg/mL
same,Solubility (indoprofen concentration),[4]; 1 h,4.8 µg/mL
same,Solubility (indoprofen concentration),[4]; 24 h,10.3 µg/mL
"CC(=O)O[C@]1(C(C)=O)CC[C@H]2[C@@H]3C[C@H](C)C4=CC(=O)CC[C@]4(C)[C@H]3CC[C@@]21C [Pure crystalline MAP, medroxyprogesterone acetate]",Melting Point,[2],205-206 °C
same,melting point,[2],205.6 °
same,% Residual of Original Heat of Fusion,"[2]; MAP systems, Table 1",100.0%
same,Heat of Fusion,"[2]; MAP systems, Table 1",88.0 J/g
same,Solubility (MAP dissolved),[5]; 5 min,< 0.04 µg/mL
same,Solubility (MAP dissolved),[5]; 15 min,0.32 µg/mL
same,Solubility (MAP dissolved),[5]; 1 hr,0.68 µg/mL
same,Solubility (MAP dissolved),[5]; 6 hrs,1.00 µg/mL
